From patent US6737438B2, “Substituted 1,2,4-trioxanes useful as antimalarial agents and a process for the preparation thereof” (Council of Scientific and Industrial Research, priority 2002, dated 2004) come the findings set out here.

Each structure is given as a SMILES string.

System in the first data set: not given
Test: not given
Conditions: not given
By melting point is commonly meant the temperature of the solid-liquid transition. `C(=CC1COC(c2ccccc2)OO1)c1ccc(-c2ccccc2)cc1` (stereo not shown) gave a melting point of 92 to 95 °C.
`Clc1ccc(-c2ccc(C=CC3COC4(CCCC4)OO3)cc2)cc1` (stereo not shown) displayed a melting point of 102 to 104 °C.
The same measure, in the same setting: to `Clc1ccc(-c2ccc(C=CC3COC4(CCCCC4)OO3)cc2)cc1` (stereo not shown) belongs 96 to 98 °C.

For a further data set, the system named is multidrug resistant strain of Plasmodium yoelii Nigeriensis. Briefly: Antimalarial activity against multidrug resistant P. yoelii in swiss mice. The format is in vivo. To be noted: i.m., 96 mg/kg, 4 consecutive days (day 0-3), parasitaemia vs vehicle control.
As for `C=C(c1ccc(C2CCCCCC2)cc1)C1COC2(OO1)C1CC3CC(C1)CC2C3` (stereo not shown) [Trioxane 9c], the “% Suppression on Day 4” value is on record as 74.57%.
As to `C=C(c1ccc(C2CCCCCCC2)cc1)C1COC2(OO1)C1CC3CC(C1)CC2C3` (stereo not shown) [Trioxane 9d], the “% Suppression on Day 4” value turned out to be 60.12%.
As for `C=C(c1ccc(-c2ccccc2)cc1)C1COC2(OO1)C1CC3CC(C1)CC2C3` (stereo not shown) [Trioxane 9e], the “% Suppression on Day 4” value was found to be 100%.
The same measure, in the same setting: under `C=C(c1ccc(-c2ccc(Br)cc2)cc1)C1COC2(OO1)C1CC3CC(C1)CC2C3` (stereo not shown) [Trioxane 9f] stands 92.4%; under `C=C(c1ccc(-c2ccc(Cl)cc2)cc1)C1COC2(OO1)C1CC3CC(C1)CC2C3` (stereo not shown) [Trioxane 9g], 100%.

Staying with this data set, now noted: i.m., 96 mg/kg, observed till day 28.
`C=C(c1ccc(C2CCCCCC2)cc1)C1COC2(OO1)C1CC3CC(C1)CC2C3` (stereo not shown) [Trioxane 9c]: the Cured/treated was 0/5.
Consider `C=C(c1ccc(C2CCCCCCC2)cc1)C1COC2(OO1)C1CC3CC(C1)CC2C3` (stereo not shown) [Trioxane 9d], for which the Cured/treated is on record as 0/5.
The same measure, in the same setting: to `C=C(c1ccc(-c2ccccc2)cc1)C1COC2(OO1)C1CC3CC(C1)CC2C3` (stereo not shown) [Trioxane 9e] belongs 0/6; to `C=C(c1ccc(-c2ccc(Br)cc2)cc1)C1COC2(OO1)C1CC3CC(C1)CC2C3` (stereo not shown) [Trioxane 9f], 2/5.

The same data set, now with this note: oral, 48 mg/kg, 4 consecutive days (day 0-3), parasitaemia vs vehicle control.
With `C=C(c1ccc(-c2ccc(Br)cc2)cc1)C1COC2(OO1)C1CC3CC(C1)CC2C3` (stereo not shown) [Trioxane 9f], the “% Suppression on Day 4” value was 100%.

The data set is the same for the next values; noted with them: oral, 48 mg/kg, observed till day 28.
As to `C=C(c1ccc(-c2ccc(Br)cc2)cc1)C1COC2(OO1)C1CC3CC(C1)CC2C3` (stereo not shown) [Trioxane 9f], the Cured/treated is on record as 5/5.

The data set is the same for the next values; noted with them: oral, 96 mg/kg, 4 consecutive days (day 0-3), parasitaemia vs vehicle control.
As for `C=C(c1ccc(C2CCCCCC2)cc1)C1COC2(OO1)C1CC3CC(C1)CC2C3` (stereo not shown) [Trioxane 9c], the “% Suppression on Day 4” value is 100%.
On the same count and under the same terms, under `C=C(c1ccc(C2CCCCCCC2)cc1)C1COC2(OO1)C1CC3CC(C1)CC2C3` (stereo not shown) [Trioxane 9d] stands 100%; under `C=C(c1ccc(-c2ccccc2)cc1)C1COC2(OO1)C1CC3CC(C1)CC2C3` (stereo not shown) [Trioxane 9e], 100%; under `C=C(c1ccc(-c2ccc(Cl)cc2)cc1)C1COC2(OO1)C1CC3CC(C1)CC2C3` (stereo not shown) [Trioxane 9g], 100%.

The same data set, now with this note: oral, 96 mg/kg, observed till day 28.
In the case of `C=C(c1ccc(C2CCCCCC2)cc1)C1COC2(OO1)C1CC3CC(C1)CC2C3` (stereo not shown) [Trioxane 9c], the Cured/treated is 5/5.
Same read-out and setting: to `C=C(c1ccc(C2CCCCCCC2)cc1)C1COC2(OO1)C1CC3CC(C1)CC2C3` (stereo not shown) [Trioxane 9d] belongs 5/5; to `C=C(c1ccc(-c2ccccc2)cc1)C1COC2(OO1)C1CC3CC(C1)CC2C3` (stereo not shown) [Trioxane 9e], 6/6.
The same measure, in the same setting: under `C=C(c1ccc(-c2ccc(Cl)cc2)cc1)C1COC2(OO1)C1CC3CC(C1)CC2C3` (stereo not shown) [Trioxane 9g] stands 3/5.
